Structures can show the parent of a compound that is named as a salt.

These results are taken from US20230365563A1, “QUINAZOLINE COMPOUND AND APPLICATION THEREOF” (SHANGHAI PHARMACEUTICALS HOLDING CO., LTD., priority 2020, published 2023).

In one test the target is T1, KRAS-G12D and SOS1 (Homo sapiens, UniProt P01116, G12D).
T1 construct: purchased
The experiment in a line: Inhibition of KRAS-G12D/SOS1 binding (Cisbio binding kit, 665/615 ratio), Effect Embodiment A. Conditions: read-out: GTP-KRAS-G12D:SOS1 IC50. The procedure, abridged:
(§1)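 Compounds are tested over eleven threefold dilution steps in duplicate, with final DMSO at 1%.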

The next test concerns the target T2, KRAS_G12D and cRAF (Homo sapiens, UniProt P01116, G12D).
T2 construct: purchased
The experiment in a line: Inhibition of KRAS_G12D/cRAF binding (Cisbio binding kit, 665/615 ratio), Effect Embodiment B. Particulars: read-out: GTP-KRAS-G12D:CRAF IC50. The procedure, abridged: as §1

The next test concerns the target T3, KRAS_WT and SOS1 (Homo sapiens, UniProt P01116).
T3 construct: purchased
Briefly: Inhibition of KRAS_WT/SOS1 binding (Cisbio binding kit, 665/615 ratio), Effect Embodiment C. Particulars: read-out: GTP-KRAS-WT:SOS1 IC50. Summed up: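 Compounds tested as 3-fold, 11-point dilutions in duplicate at 1% DMSO final against the KRAS_WT/SOS1 binding system. IC50 derived by nonlinear regression fit.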

T3 sequence (P01116 1-188 isoform P01116-2): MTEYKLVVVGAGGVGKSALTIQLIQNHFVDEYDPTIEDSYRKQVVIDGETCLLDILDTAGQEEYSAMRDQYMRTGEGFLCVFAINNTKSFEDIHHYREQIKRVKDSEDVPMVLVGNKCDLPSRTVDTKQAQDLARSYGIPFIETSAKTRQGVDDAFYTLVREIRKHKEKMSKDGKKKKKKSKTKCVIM
T1 sequence (P01116 1-188 isoform P01116-2 G12D): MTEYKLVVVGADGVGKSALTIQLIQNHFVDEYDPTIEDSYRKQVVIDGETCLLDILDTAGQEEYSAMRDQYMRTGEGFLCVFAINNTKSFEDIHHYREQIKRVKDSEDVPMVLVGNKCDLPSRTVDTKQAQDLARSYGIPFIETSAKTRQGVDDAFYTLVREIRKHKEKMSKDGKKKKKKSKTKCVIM
T2 sequence (P01116 1-188 isoform P01116-2 G12D): as above

Take `Oc1cc(-c2c(Cl)cc3c(N4CC5CCC(C4)N5)nc(OCCCN4C5COCC4C5)nc3c2F)c2ccccc2c1` (single isomer, unassigned) [Compound 200, 4-((7S or 7R)-2-(3-(3-oxa-6-azabicyclo[3.1.1]heptan-6-yl)propoxy)-4-((1R,5S)-3,8-diazabicyclo[3.2.1]octan-3-yl)-6-chloro-8-fluoroquinazolin-7-yl)naphthalen-2-ol diformate]: the IC50 (in general, the concentration that inhibits the measured activity by half) at KRAS-G12D and SOS1 came out at 62 nM; at KRAS_G12D and cRAF, 73.7 nM; on KRAS_WT and SOS1, 2490 nM.
Take `CC(C)N1CC2CCC(C1)N2CCCOc1nc(N2CC3CCC(C2)N3)c2cc(Cl)c(-c3cc(O)cc4ccccc34)c(F)c2n1` (single isomer, unassigned) [Compound 244, 4-((7S or 7R)-4-((1R,5S)-3,8-diazacyclo[3.2.1]octan-3-yl)-6-chloro-8-fluoro-2-(3-(3-isopropyl-3,8-diazacyclo[3.2.1]octan-8-yl)propoxy)quinazolin-7-yl)naphthalen-2-ol diformate]: the IC50 on KRAS-G12D and SOS1 turned out to be 48.5 nM; at KRAS_G12D and cRAF it was 260 nM; on KRAS_WT and SOS1, 3340 nM.
Taken in the same sequence, the figures for `Oc1cc(-c2c(Cl)cc3c(N4CC5CCC(C4)N5)nc(OCCCN4CCNCC4)nc3c2F)c2ccccc2c1` (single isomer, unassigned) [Compound 92, 4-((S or R)-4-((1R,5S)-3,8-diazabicyclo[3.2.1]octan-3-yl)-6-chloro-8-fluoro-2-(3-(piperazin-1-yl)propoxy)quinazolin-7-yl)naphthalen-2-ol dihydrochloride] were 37.4 nM, 139 nM and 4710 nM.
As to `CN1CC(C)(C)C[C@H]1COc1nc(N2CC3CCC(C2)N3)c2cnc(-c3cc(O)cc4ccccc34)c(F)c2n1` [Compound 139, 4-(4-((1R,5S)-3,8-diazabicyclo[3.2.1]octan-3-yl)-8-fluoro-2-((S)-1,4,4-trimethylpyrrolidin-2-yl)methoxy)pyridinyl[4,3-d]pyrimidin-7-yl)naphthalen-2-ol diformate], the IC50 on KRAS-G12D and SOS1 turned out to be 37.2 nM; at KRAS_G12D and cRAF, 129 nM; at KRAS_WT and SOS1, 1920 nM.
For `Oc1cc(-c2c(Cl)cc3c(N4CC5CCC(C4)N5)nc(OCC(F)CN4CCCC4)nc3c2F)c2ccccc2c1` (single isomer, unassigned) [Compound 109b, 4-((S or R)-4-((1R,5S)-3,8-diazabicyclo[3.2.1]octan-3-yl)-6-chloro-8-fluoro-2-((R or S)-2-fluoro-3-(pyrrolidin-1-yl)propoxy)quinazolin-7-yl)naphthalen-2-ol hydrochloride], the IC50 at KRAS-G12D and SOS1 worked out at 58.2 nM; at KRAS_G12D and cRAF, 208 nM; at KRAS_WT and SOS1, 5350 nM.
With `Oc1cc(-c2c(Cl)cc3c(N4CC5CCC(C4)N5)nc(OCCCN4CCOCC4)nc3c2F)c2ccccc2c1` (single isomer, unassigned) [Compound 54a, 4-((S or R)-4-((1R,5S)-3,8-diazabicyclo[3.2.1]octan-3-yl)-6-chloro-8-fluoro-2-(3-morpholinopropoxy)quinazolin-7-yl)naphthalen-2-ol], the IC50 at KRAS-G12D and SOS1 came out at 26.2 nM; at KRAS_G12D and cRAF, 103 nM; at KRAS_WT and SOS1 it was 1190 nM.
Taken in the same sequence, the figures for `Oc1cc(Cl)c(C2CC2)c(-c2c(Cl)cc3c(N4C[C@H]5CC[C@@H](C4)N5)nc(OCCCN4C5CCC4COC5)nc3c2F)c1` (single isomer, unassigned) [Compound 197a, 3-((7R or 7S)-2-(3-(3-oxa-8-azabicyclo[3.2.1]octan-8-yl)propoxy)-4-((1R,5S)-3,8-diazabicyclo[3.2.1]octan-3-yl)-6-chloro-8-fluoroquinazolin-7-yl)-5-chloro-4-cyclopropylphenol formate] were 17.8 nM, 59.8 nM and 833 nM.
In the case of `CN(C)C1CN(c2nc(N3C[C@@H]4CC[C@H]3CN4)c3cc(Cl)c(-c4cc(O)cc5ccccc45)c(F)c3n2)C1` (single isomer, unassigned) [Compound 4a, (R or S)-4-(4-((1S,4S)-2,5-diazabicyclo [2.2.2]octan-2-yl)-6-chloro-2-(3-(dimethylamino)azetidin-1-yl)-8-fluoro-quinazolin-7-yl)naphthalen-2-ol], the IC50 at KRAS-G12D and SOS1 worked out at 36.9 nM; on KRAS_G12D and cRAF it was 213 nM; on KRAS_WT and SOS1 it was 401 nM.
In the same order, the values of `C[C@@H]1CN(CC2(COc3nc(N4CC5CCC(C4)N5)c4cc(Cl)c(-c5cc(O)cc6ccccc56)c(F)c4n3)CC2)C[C@H](C)O1` (single isomer, unassigned) [Compound 207, 4-((S or R)-4-((1R,5S)-3,8-diazabicyclo[3.2.1]octan-3-yl)-6-chloro-2-((2S,6R)-2,6-dimethylmorpholinyl)methyl)cyclopropyl)methoxy)-8-fluoroquinazolin-7-yl)naphthalenol formate] are 11.6 nM, 7.23 nM and 196 nM.
In the same order, the values of `C[C@H](COc1nc(N2CC3CCC(C2)N3)c2cc(Cl)c(-c3cc(O)cc4ccccc34)c(F)c2n1)CN(C)C` (single isomer, unassigned) [Compound 202, 4-((S or R)-4-((1R,5S)-3,8-diazabicyclo[3.2.1]octan-3-yl)-6-chloro-2-((S)-3-(dimethylamino)-2-methylpropoxy)-8-fluoroquinazolin-7-yl)naphthalen-2-ol diformate] are 51.8 nM, 168 nM and 2150 nM.
Taken in the same sequence, the figures for `Oc1cc(-c2c(Cl)cc3c(N4CC5CCC(C4)N5)nc(OCC4(CN5C6CCC5COC6)CCC4)nc3c2F)c2ccccc2c1` (single isomer, unassigned) [Compound 173, (4R or S)-4-(2-((1-((3-oxa-8-azabicyclo[3.2.1]octan-8-yl)methyl)cyclobutyl)methoxy)-4-((1R,5S)-3,8-diazabicyclo[3.2.1]octan-3-yl)-6-chloro-8-fluoroquinazolin-7-yl)naphthalen-2-ol dihydrochloride] were 14.8 nM, 37.9 nM and 251 nM.
Consider `CO[C@H]1C[C@H]2CC[C@@H](C1)N2C[C@@H](C)COc1nc(N2CC3CCC(C2)N3)c2cc(Cl)c(-c3cc(O)cc4ccccc34)c(F)c2n1` (single isomer, unassigned) [Compound 223, 4-((S or R)-4-((1R,5S)-3,8-diazabicyclo[3.2.1]octan-3-yl)-6-chloro-8-fluoro-2-((R)-3-((1R,3R,5S)-3-methoxy-8-azabicyclo[3.2.1]octan-8-yl)-2-methylpropoxy)quinazolin-7-yl)naphthalen-2-ol diformate], for which the IC50 is 17.5 nM on KRAS-G12D and SOS1; 15.6 nM on KRAS_G12D and cRAF; 1700 nM on KRAS_WT and SOS1.
For the compound `Oc1cc(-c2c(Cl)cc3c(N4CC5CCC(C4)N5)nc(OCC4(CN5C6CCC5COC6)CC4)nc3c2F)c2ccccc2c1` (single isomer, unassigned) [Compound 119, 4-((7S or R)-2-((1-((3-oxa-8-azabicyclo[3.2.1]octan-8-yl)methyl)cyclopropyl)methoxy)-4-((1R,5S)-3,8-diazabicyclo[3.2.1]octan-3-yl)-6-chloro-8-fluoroquinazolin-7-yl)naphthalen-2-ol formate], the IC50 is 14.5 nM on KRAS-G12D and SOS1; 14.4 nM at KRAS_G12D and cRAF; 160 nM on KRAS_WT and SOS1.
In the same order, the values of `C[C@@H](COc1nc(N2CC3CCC(C2)N3)c2cc(Cl)c(-c3cc(O)cc4ccccc34)c(F)c2n1)CN1C[C@H](C)OC[C@H]1C` (single isomer, unassigned) [Compound 237, 4-((S or R)-4-((1R,5S)-3,8-diazacyclo[3.2.1]octan-3-yl)-6-chloro-2-((R)-3-((2S,5R)-2,5-dimethylmorpholinyl)-2-methylpropoxy)-8-fluoroquinazolin-7-yl)naphthalen-2-ol formate] are 19.5 nM, 18.6 nM and 569 nM.
Taken in the same sequence, the figures for `C[C@@H]1COC[C@H](C)N1CCCOc1nc(N2CC3CCC(C2)N3)c2cc(Cl)c(-c3cc(O)cc4ccccc34)c(F)c2n1` (single isomer, unassigned) [Compound 175, (R or S)-4-(4-((1R,5S)-3,8-diazabicyclo[3.2.1]octan-3-yl)-6-chloro-2-(3-((3R,5S)-3,5-dimethylmorpholinyl)propoxy)-8-fluoroquinazolin-7-yl)naphthalen-2-ol formate] were 104 nM, 303 nM and 4300 nM.
Regarding `CN(C)CCCCOc1nc(N2CC3CCC(C2)N3)c2cc(Cl)c(-c3cc(O)cc4ccccc34)c(F)c2n1` (single isomer, unassigned) [Compound 60a, 4-((S or R)-4-((1R,5S)-3,8-diazabicyclo[3.2.1]octan-3-yl)-6-chloro-2-(4-(dimethylamino)butoxy)-8-fluoroquinazolin-7-yl)naphthalen-2-ol], the IC50 at KRAS-G12D and SOS1 came out at 63 nM; on KRAS_G12D and cRAF, 357 nM; on KRAS_WT and SOS1 it was 5900 nM.
As to `CCc1cccc2cc(O)cc(-c3c(F)cc4c(N5CC6CCC(C5)N6)nc(OC[C@@]56CCCN5C[C@H](F)C6)nc4c3F)c12` (single isomer, unassigned) [Compound 285a, (S or R)-4-(4-((1R,5S)-3,8-diazacyclo[3.2.1]octan-3-yl)-6,8-difluoro-2-((2R,7aS)-2-fluorotetrahydro-1H-pyrrolidin-7a(5H-yl)methoxy)quinazolin-7-yl)-5-ethylnaphthalen-2-ol dihydrochloride], the IC50 on KRAS-G12D and SOS1 was 16.6 nM; on KRAS_G12D and cRAF, 9.12 nM; at KRAS_WT and SOS1, 18.4 nM.
